15 molecules from patent US20250171438A1 (Agios Pharmaceuticals, Inc., priority 2022, published 2025) can be followed below.

Like-named read-outs stand apart in the source and are kept apart here.

The target in the experiment is T1, human PAH with the R408W mutation (Homo sapiens, UniProt P00439, R408W).
T1 construct: expressed in transfected cells
T1 sequence (P00439 1-452 R408W): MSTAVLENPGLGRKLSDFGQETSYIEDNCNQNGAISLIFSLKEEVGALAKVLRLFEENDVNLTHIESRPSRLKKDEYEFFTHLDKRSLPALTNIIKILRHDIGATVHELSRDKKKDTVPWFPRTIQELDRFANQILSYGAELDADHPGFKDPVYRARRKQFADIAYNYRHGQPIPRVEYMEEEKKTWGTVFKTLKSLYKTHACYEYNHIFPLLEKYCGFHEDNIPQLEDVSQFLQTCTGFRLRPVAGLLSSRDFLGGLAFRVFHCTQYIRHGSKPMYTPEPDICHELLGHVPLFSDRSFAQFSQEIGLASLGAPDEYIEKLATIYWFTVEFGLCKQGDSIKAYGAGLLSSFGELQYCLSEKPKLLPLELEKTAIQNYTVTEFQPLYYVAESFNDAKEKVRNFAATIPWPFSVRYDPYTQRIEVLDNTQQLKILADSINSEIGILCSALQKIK
Briefly: Cell Based Phenylalanine Flux Assay. The settings on record: A375 cells expressing human R408W PAH, 13C-Tyrosine by LC-MS, average where tested multiple times, read-out: AC50.

Consider `CC(C)(F)c1ncc(C(=O)N2CCc3[nH]cnc3[C@@H]2c2nc3c(F)cccc3s2)s1` [Example 1485, (R)-(4-(4-fluorobenzo[d]thiazol-2-yl)-6,7-dihydro-1H-imidazo[4,5-c]pyridin-5(4H)-yl)(2-(2-fluoropropan-2-yl)thiazol-5-yl)methanone], for which, under “24 hrs compound incubation”, the half-maximal activity concentration (AC50) is 500 to 1000 nM.

For `CNC(C)(C)c1nc(C(F)F)c(C(=O)N2CCc3[nH]cnc3[C@H]2c2nc3c(F)cccc3s2)o1` [Example 2069, (S)-(4-(difluoromethyl)-2-(2-(methylamino)propan-2-yl)oxazol-5-yl)(4-(4-fluorobenzo[d]thiazol-2-yl)-6,7-dihydro-1H-imidazo[4,5-c]pyridin-5(4H)-yl)methanone], the AC50 (24 hrs compound incubation) was below 500 nM.

`CC(C)(C)CCC(=O)N1CCc2[nH]cnc2C1c1nc2ccc(F)cc2s1` (stereo not drawn): for the setting “24 hrs with compound”, the AC50 fell in the range of 1000 to 5000 nM.

Turning to `O=C(c1nnc(-c2ccc(F)c(F)c2)o1)N1CCc2[nH]cnc2[C@H]1c1nc2ccccc2s1` [Example 1801], where the note is “24 hrs compound incubation”, the AC50 is below 500 nM.

Turning to `O=C(c1cnc(C2CC2)s1)N1CCc2[nH]cnc2[C@@H]1c1nc2ccccc2s1` [Example 1180, (R)-(4-(benzo[d]thiazol-2-yl)-6,7-dihydro-1H-imidazo[4,5-c]pyridin-5(4H)-yl)(2-cyclopropylthiazol-5-yl)methanone], where the note is “24 hrs compound incubation”, the half-maximal activity concentration (AC50) was 1000 to 5000 nM.

As to `CN(C)CCc1ccc2c(C(=O)N3CCc4[nH]cnc4[C@@H]3c3nc4ccccc4s3)cnn2c1` [Example 1454, (R)-(4-(benzo[d]thiazol-2-yl)-6,7-dihydro-1H-imidazo[4,5-c]pyridin-5(4H)-yl)(6-(2-(dimethylamino)ethyl)pyrazolo[1,5-a]pyridin-3-yl)methanone], for the setting “24 hrs compound incubation”, the AC50 is above 5000 nM.

Regarding `O=C(CC1CC1)N1CCc2[nH]cnc2[C@H]1c1nc2ccc(Br)cc2[nH]1` [Example 945, (S)-1-(4-(6-bromo-1H-benzo[d]imidazol-2-yl)-6,7-dihydro-1H-imidazo[4,5-c]pyridin-5(4H)-yl)-2-cyclopropylethanone], the AC50 (24 hrs compound incubation) was below 500 nM.

Take `O=C(c1cnn(-c2ccccn2)c1Cl)N1CCc2[nH]cnc2[C@H]1c1nc2ccccc2s1` [Example 1895]: the concentration at half-maximal activity (AC50) (24 hrs compound incubation) lay within 500 to 1000 nM.

For the molecule `CC(C)(O)c1nnc(C(=O)N2CC3(CC3)c3[nH]cnc3[C@H]2c2nc3ccccc3s2)o1` [Example 1696, (S)-(4′-(benzo[d]thiazol-2-yl)spiro[cyclopropane-1,7′-imidazo[4,5-c]pyridin]-5′(1′H,4′H,6′H)-yl)(5-(2-hydroxypropan-2-yl)-1,3,4-oxadiazol-2-yl)methanone], the AC50 (24 hrs compound incubation) was 500 to 1000 nM.

Consider `O=C(Cc1nccs1)N1CCc2[nH]cnc2C1c1nc2ccc(Br)cc2s1` (stereo not drawn), for which, under “24 hrs with compound”, the AC50 lay in the range of 1000 to 5000 nM.

`O=C(c1cnn2cc(F)ccc12)N1CCc2[nH]cnc2[C@@H]1c1nc2c(F)cccc2s1` [Example 1216, (R)-(4-(4-fluorobenzo[d]thiazol-2-yl)-6,7-dihydro-1H-imidazo[4,5-c]pyridin-5(4H)-yl)(6-fluoropyrazolo[1,5-a]pyridin-3-yl)methanone]: the AC50 (24 hrs compound incubation) fell in the range of 1000 to 5000 nM.

For `Nc1nnc(CCC(=O)N2CCc3[nH]cnc3C2c2nc3ccccc3s2)s1` (stereo not drawn), the AC50 (24 hrs with compound) was above 5000 nM.

As to `O=C(c1cnn(CC(F)(F)F)c1C(F)F)N1CCc2[nH]cnc2[C@@H]1c1nc2ccccc2s1` [Example 1974, (R)-(4-(benzo[d]thiazol-2-yl)-6,7-dihydro-1H-imidazo[4,5-c]pyridin-5(4H)-yl)(5-(difluoromethyl)-1-(2,2,2-trifluoroethyl)-1H-pyrazol-4-yl)methanone], the AC50 (24 hrs compound incubation) was 1000 to 5000 nM.

Regarding `CC(C)(O)/C=C/c1nc(C(F)(F)F)c(C(=O)N2CCc3[nH]cnc3[C@@H]2c2nc3ccccc3s2)o1` [Example 1570, (R,E)-(4-(benzo[d]thiazol-2-yl)-6,7-dihydro-1H-imidazo[4,5-c]pyridin-5(4H)-yl)(2-(3-hydroxy-3-methylbut-1-en-1-yl)-4-(trifluoromethyl)oxazol-5-yl)methanone], the AC50 (24 hrs compound incubation) is below 500 nM.

On to `O=C(C1CC1)N1CCc2[nH]cnc2C1c1nc2ccc(F)cc2s1` (stereo not drawn), for which, under “24 hrs with compound”, the AC50 was above 5000 nM.
